Test results reported in patent publication US9629830B2, “EphA4 inhibitors as neuroprotective agents” (The Hong Kong University of Science and Technology, priority 2013, dated 2017).
“Also recorded” adds a separate entry of the source.

Target: T1, EphA4 (Rattus norvegicus, UniProt D3ZZK3)
T1 construct: endogenous in cells; host or cells: primary rat cortical neurons (A5), primary rat hippocampal neurons (A7)
Experiment: Ephrin-A1-induced EphA4 cluster assay in cultured hippocampal neurons
Assay type: cell-based
Settings: 30 μM
Description: For EphA4 clustering, neurons were stained with anti-EphA4 and anti-Tau-1 antibodies. For the growth cone collapse assay, neurons were stained with Alexa Fluor 555-conjugated phalloidin (Molecular Probes) for filamentous actin and anti-Tau-1 antibody for axons. Collapsed growth cones were scored in a double-blinded manner. The experiments were repeated at least 3 times, and >50 neurons were analyzed for each experiment. Data are presented as mean±SEM.
Rat hippocampal neurons were seeded on 48-well plates coated with poly-D-lysine (50 μg/mL) at 6000 cells per well. Neurons were incubated with Neurobasal medium (Invitrogen) supplemented with 2% B27 (Invitrogen). […] Neurons were then immunostained with anti-EphA4 and anti-Tau-1 antibodies. The cellular imaging and quantification of EphA4 clusters was performed using IN Cell Analyzer 6000 high content assay system (GE Healthcare). EphA4 clusters were quantified by calculating the proportion of total area of EphA4 clusters on axons against Tau positive area. Statistical analysis was performed with one-way ANOVA followed by Newman-Keuls Multiple Comparison Test (Prism 5 GraphPad Software).

T1 sequence (D3ZZK3 20-986): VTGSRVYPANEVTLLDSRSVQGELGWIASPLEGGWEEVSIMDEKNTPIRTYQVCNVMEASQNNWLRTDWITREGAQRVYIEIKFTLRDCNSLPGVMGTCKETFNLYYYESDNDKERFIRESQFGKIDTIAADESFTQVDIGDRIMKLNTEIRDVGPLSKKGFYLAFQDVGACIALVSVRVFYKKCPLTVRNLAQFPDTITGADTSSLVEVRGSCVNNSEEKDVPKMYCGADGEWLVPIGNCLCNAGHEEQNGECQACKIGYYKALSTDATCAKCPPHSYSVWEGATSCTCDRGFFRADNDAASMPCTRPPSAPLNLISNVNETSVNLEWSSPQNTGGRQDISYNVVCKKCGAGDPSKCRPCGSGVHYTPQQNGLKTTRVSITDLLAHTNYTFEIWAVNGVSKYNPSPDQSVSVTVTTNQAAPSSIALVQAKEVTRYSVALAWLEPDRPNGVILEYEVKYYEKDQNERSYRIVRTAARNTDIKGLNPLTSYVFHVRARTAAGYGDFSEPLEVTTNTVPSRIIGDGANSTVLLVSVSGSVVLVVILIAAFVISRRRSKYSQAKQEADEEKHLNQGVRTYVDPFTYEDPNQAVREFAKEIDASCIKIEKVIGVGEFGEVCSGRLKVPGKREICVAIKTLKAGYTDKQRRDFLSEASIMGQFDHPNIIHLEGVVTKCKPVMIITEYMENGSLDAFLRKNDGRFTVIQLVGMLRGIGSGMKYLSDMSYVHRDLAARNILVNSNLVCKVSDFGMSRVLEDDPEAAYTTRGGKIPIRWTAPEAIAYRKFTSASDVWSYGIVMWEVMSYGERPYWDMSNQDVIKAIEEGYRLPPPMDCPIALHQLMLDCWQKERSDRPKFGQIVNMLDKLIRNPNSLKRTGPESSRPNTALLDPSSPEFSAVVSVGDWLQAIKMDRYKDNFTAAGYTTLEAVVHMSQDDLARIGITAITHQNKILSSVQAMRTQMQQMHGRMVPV

| Compound | potency on EphA4 inhibition (EphA4 clusters) compared to Rhy (words) |
| --- | --- |
| CCC1CN2CCC3(C(=O)N(CCCCCCCCOC(=O)c4ccc(Br)cc4I)c4ccccc43)C2CC1C(=COC)C(=O)OC (centres unmarked) [RHY-52] | More Potent Effect on EphA4 Inhibition than Rhy |
| CCC1CN2CCC3(C(=O)N(CCCCCCCCCOc4ccc(OCc5ccccc5)cc4)c4ccccc43)C2CC1C(=COC)C(=O)OC (centres unmarked) [RHY-55] | higher potency on EphA4 inhibition |
| CCC1CN2CCC3(C(=O)N(CCCCCCBr)c4ccccc43)C2CC1C(=COC)C(=O)OC (centres unmarked) [RHY-27] | higher potency on EphA4 inhibition |
| CCC1CN2CCC3(C(=O)N(CCCCCCOc4ccc(OC)c(OC)c4)c4ccccc43)C2CC1C(=COC)C(=O)OC (centres unmarked) [RHY-39] | more potent effect on EphA4 inhibition than Rhy |
| CCC1CN2CCC3(C(=O)N(CCCCCCCOc4ccc(OC)c(OC)c4)c4ccccc43)C2CC1C(=COC)C(=O)OC (centres unmarked) [RHY-43] | more potent effect on EphA4 inhibition than Rhy |
| CC[C@H]1CN2CC[C@]3(C(=O)N(CCCCCBr)c4ccccc43)[C@@H]2C[C@@H]1/C(=C\OC)C(=O)OC [RHY-23] | higher potency on EphA4 inhibition |
| CCC1CN2CCC3(C(=O)N(CCCCCCCCCBr)c4ccccc43)C2CC1C(=COC)C(=O)OC (centres unmarked) [RHY-31] | higher potency on EphA4 inhibition |
| CCC1CN2CCC3(C(=O)N(CCCCCCCCCOc4ccc(O)cc4)c4ccccc43)C2CC1C(=COC)C(=O)OC (centres unmarked) [RHY-60] | more potent effect on EphA4 inhibition than Rhy |
| CC[C@H]1CN2CC[C@]3(C(=O)N(CCCCCCCOc4ccc(O)cc4)c4ccccc43)[C@@H]2C[C@@H]1/C(=C\OC)C(=O)OC [RHY-48] | comparable potency to Rhy |
| CCC1CN2CCC3(C(=O)N(CCCCCCCCOc4ccc(O)cc4)c4ccccc43)C2CC1C(=COC)C(=O)OC (centres unmarked) [RHY-54] | significantly more potent than Rhy; also recorded: more potent effect on EphA4 inhibition than Rhy |
| CCC1CN2CCC3(C(=O)N(CCCCCCCCBr)c4ccccc43)C2CC1C(=COC)C(=O)OC (centres unmarked) [RHY-34] | higher potency on EphA4 inhibition |
| CCC1CN2CCC3(C(=O)N(CCCCCCOC(=O)c4cc(OC)ccc4[N+](=O)[O-])c4ccccc43)C2CC1C(=COC)C(=O)OC (centres unmarked) [RHY-40] | more potent; also recorded: higher potency on EphA4 inhibition than Rhy |
| CC[C@H]1CN2CC[C@]3(C(=O)N(CCCCCCOc4ccc(OCc5ccccc5)cc4)c4ccccc43)[C@@H]2C[C@@H]1/C(=C\OC)C(=O)OC [RHY-42] | higher potency on EphA4 inhibition |
| CC[C@H]1CN2CC[C@]3(C(=O)N(CCCCCCCCOC(=O)c4cc(OC)ccc4[N+](=O)[O-])c4ccccc43)[C@@H]2C[C@@H]1/C(=C\OC)C(=O)OC [RHY-50] | more potent; also recorded: higher potency on EphA4 inhibition than Rhy |
| CCC1CN2CCC3(C(=O)N(CCCCCCCBr)c4ccccc43)C2CC1C(=COC)C(=O)OC (centres unmarked) [RHY-35] | higher potency on EphA4 inhibition |
| CC[C@H]1CN2CC[C@]3(C(=O)N(CCCCCCCOC(=O)c4cc(OC)ccc4[N+](=O)[O-])c4ccccc43)[C@@H]2C[C@@H]1/C(=C\OC)C(=O)OC [RHY-45] | more potent; also recorded: higher potency on EphA4 inhibition than Rhy |
| CC[C@H]1CN2CC[C@]3(C(=O)N(CCCCCCCCOc4ccc(OC)c(OC)c4)c4ccccc43)[C@@H]2C[C@@H]1/C(=C\OC)C(=O)OC [RHY-37] | more potent effect on EphA4 inhibition than Rhy |
| CCC1CN2CCC3(C(=O)N(CCCCCCCCCOC(=O)C=Cc4ccc(OC)cc4)c4ccccc43)C2CC1C(=COC)C(=O)OC (centres unmarked) [RHY-59] | more potent; also recorded: higher potency on EphA4 inhibition than Rhy |
| CCC1CN2CCC3(C(=O)N(CCCCCCCCOc4ccc(OCc5ccccc5)cc4)c4ccccc43)C2CC1C(=COC)C(=O)OC (centres unmarked) [RHY-49] | higher potency on EphA4 inhibition |
| CCC1CN2CCC3(C(=O)N(CCCCCCCOc4ccc(OCc5ccccc5)cc4)c4ccccc43)C2CC1C(=COC)C(=O)OC (centres unmarked) [RHY-44] | higher potency on EphA4 inhibition |

Same assay, conditions: 30 μM, 20 min pretreatment, then ephrin-A1 40 min; some sentences add 'when compared to Rhy'

| Compound | reduction of ephrin-A1-induced EphA4 clustering |
| --- | --- |
| CC[C@H]1CN2CC[C@]3(C(=O)N(CCCCCCCCCl)c4ccccc43)[C@@H]2C[C@@H]1/C(=C\OC)C(=O)OC [RHY-26] | ~80% |

Same assay, conditions: 30 μM; listed as RHY60

| potency on EphA4 inhibition (EphA4 clusters) compared to Rhy (words) | Compound |
| --- | --- |
| significantly more potent than Rhy | CCC1CN2CCC3(C(=O)N(CCCCCCCCCOc4ccc(O)cc4)c4ccccc43)C2CC1C(=COC)C(=O)OC (centres unmarked) [RHY-60] |

Same assay, conditions: 50 μM

| Compound | potency on EphA4 inhibition (EphA4 clusters) compared to Rhy (words) | inhibitory effect on EphA4 cluster formation |
| --- | --- | --- |
| CC[C@H]1CN2CC[C@]3(C(=O)N(CCCCCCCNCCN4CCCC4)c4ccccc43)[C@@H]2C[C@@H]1/C(=C\OC)C(=O)OC [RHY-46] | higher potency on EphA4 inhibition | – |
| CCC1CN2CCC3(C(=O)N(CCCCCCCCCNCCCCCCN)c4ccccc43)C2CC1C(=COC)C(=O)OC (centres unmarked) [RHY-32] | higher potency on EphA4 inhibition | – |
| CCC1CN2CCC3(C(=O)N(CCCCCCOC(=O)c4ccc(OC)c(OC)c4)c4ccccc43)C2CC1C(=COC)C(=O)OC (centres unmarked) [RHY-33] | comparable potency as Rhy | – |
| CCC1CN2CCC3(C(=O)N(Cc4cccc(Cl)c4)c4ccccc43)C2CC1C(=COC)C(=O)OC (centres unmarked) [RHY-19] | significantly reduced the EphA4 clusters compared to Rhy | most significant |
| CCC1CN2CCC3(C(=O)N(CC(=O)c4ccc(OC)cc4)c4ccccc43)C2CC1C(=COC)C(=O)OC (centres unmarked) [RHY-28] | significantly reduced the EphA4 clusters compared to Rhy | most significant |
| CCC1CN2CCC3(C(=O)N(CCCCCCCNCCCn4ccnc4)c4ccccc43)C2CC1C(=COC)C(=O)OC (centres unmarked) [RHY-47] | higher potency on EphA4 inhibition | – |
| CCC1CN2CCC3(C(=O)N(CC=Cc4ccccc4)c4ccccc43)C2CC1C(=COC)C(=O)OC (centres unmarked) [RHY-9] | significantly reduced the EphA4 clusters compared to Rhy | most significant |
| CCC1CN2CCC3(C(=O)N(CCCCCCCCCOC(=O)c4ccc(OC)c(OC)c4)c4ccccc43)C2CC1C(=COC)C(=O)OC (centres unmarked) [RHY-57] | more potent activity than Rhy; also recorded: more potent effect on EphA4 inhibition than Rhy | – |
| CC[C@H]1CN2CC[C@]3(C(=O)N(CCCCCCCCOC(=O)c4ccc(OC)c(OC)c4)c4ccccc43)[C@@H]2C[C@@H]1/C(=C\OC)C(=O)OC [RHY-36] | more potent activity than Rhy; also recorded: more potent effect on EphA4 inhibition than Rhy | – |
| CCC1CN2CCC3(C(=O)N(CCCCCCNCCN4CCCC4)c4ccccc43)C2CC1C(=COC)C(=O)OC (centres unmarked) [RHY-41] | higher potency on EphA4 inhibition | – |
| CCC1CN2CCC3(C(=O)N(Cc4ccccc4-c4ccccc4)c4ccccc43)C2CC1C(=COC)C(=O)OC (centres unmarked) [RHY-10] | significantly reduced the EphA4 clusters compared to Rhy | most significant |
| CCC1CN2CCC3(C(=O)N(CCCCCCCOC(=O)c4ccc(OC)c(OC)c4)c4ccccc43)C2CC1C(=COC)C(=O)OC (centres unmarked) [RHY-38] | more potent activity than Rhy; also recorded: more potent effect on EphA4 inhibition than Rhy | – |
| C=CCN1C(=O)C2(CCN3CC(CC)C(C(=COC)C(=O)OC)CC32)c2ccccc21 (centres unmarked) [RHY-17] | significantly reduced the EphA4 clusters compared to Rhy | most significant |

Same assay, conditions: dose-dependent experiment, FIG. 17

| Compound | inhibitory effect on EphA4 clusters (potency) compared to Rhy |
| --- | --- |
| CC[C@H]1CN2CC[C@]3(C(=O)N(CCCCCCCCCl)c4ccccc43)[C@@H]2C[C@@H]1/C(=C\OC)C(=O)OC [RHY-26] | 5 fold |
| CC[C@H]1CN2CC[C@]3(C(=O)N(CCCCCCCCOc4ccc(OC)c(OC)c4)c4ccccc43)[C@@H]2C[C@@H]1/C(=C\OC)C(=O)OC [RHY-37] | 12 fold |

Same assay, conditions: same assay system; no data given

| Compound | potency as EphA4 inhibitor |
| --- | --- |
| CCC1CN2CCC3(C(=O)N(CCCCCCCCCCCl)c4ccccc43)C2CC1C(=COC)C(=O)OC (centres unmarked) [RHY-65] | tested and verified |
| CCC1CN2CCC3(C(=O)N(CCCCCCCCl)c4ccccc43)C2CC1C(=COC)C(=O)OC (centres unmarked) [RHY-64] | tested and verified |
| CCC1CN2CCC3(C(=O)N(CCCCCCCCNCCN4CCCC4)c4ccccc43)C2CC1C(=COC)C(=O)OC (centres unmarked) [RHY-53] | tested and verified |
| CCC1CN2CCC3(C(=O)N(CCCCl)c4ccccc43)C2CC1C(=COC)C(=O)OC (centres unmarked) [RHY-61] | tested and verified |
| CCC1CN2CCC3(C(=O)N(CCCCCCCCCCCCCl)c4ccccc43)C2CC1C(=COC)C(=O)OC (centres unmarked) [RHY-67] | tested and verified |
| CCC1CN2CCC3(C(=O)N(CCCCCCCCCCl)c4ccccc43)C2CC1C(=COC)C(=O)OC (centres unmarked) [RHY-62] | tested and verified |
| CCC1CN2CCC3(C(=O)N(CCCCCCCCCCCCl)c4ccccc43)C2CC1C(=COC)C(=O)OC (centres unmarked) [RHY-66] | tested and verified |
| CCC1CN2CCC3(C(=O)N(CCCCCCCl)c4ccccc43)C2CC1C(=COC)C(=O)OC (centres unmarked) [RHY-63] | tested and verified |
